Columns and labels:
[1] = Microscopic observation (polarizing microscope); type: physicochemical; settings: under the microscope
Description: The test sample was taken on a glass slide, spread homogeneously, and covered with a cover glass to prepare a temporary mounting slide.
A transflective polarizing microscope (VPV-900) was used. The specific procedures were as follows: adjust the brightness, fix the temporary mounting slide on the stage, align the light aperture with a low-power objective lens, and adjust the coarse focus screw until the field of view is clear. If the clarity is insufficient, use the fine focus screw for further adjustment or switch to a high-power objective lens for observation.
Bright spots can be observed in the middle of the sample in the field of view, which were crystalline structures.

[2] = background statement; cited from earlier work

Microscopic structure ([1]; listed as coenzyme Q10 raw material): irregular crystalline structures
Microscopic structure ([1]; listed as raw material of coenzyme Q10): irregular crystal structure
Compound: COC1=C(OC)C(=O)C(C/C=C(\C)CC/C=C(\C)CC/C=C(\C)CC/C=C(\C)CC/C=C(\C)CC/C=C(\C)CC/C=C(\C)CC/C=C(\C)CC/C=C(\C)CCC=C(C)C)=C(C)C1=O [Coenzyme Q10, coenzyme Q10]
Antioxidant capacity relative to vitamin E [2]: 50 times

Reference: US20260355112A1, “HIGH-STABILITY LIPOSOME, PREPARATION METHOD THEREFOR, AND USE THEREOF” (SIRIO HEALTHCARE (ANHUI) CO., LTD., priority 2022, published 2026)
